# Results as given in patent publication US11426371B2, “Compositions and methods for treating cancer” (University of Virginia Patent Foundation, priority 2017, dated 2022).
# Read-outs that look alike come from different tables or passages of the source.
# Columns and labels:
# [1] = tested on: EOL-1; test: Cell viability, panel of AML cell lines; format: cell-based; settings: Homo sapiens, EOL1, EOL-1 cells
# Procedure: (§1) Representative human AML cell lines (FIG. 2A; upper and lower panels) HL60/VCR and (FIG. 2B; upper and lower panels) OCI-AML2 were treated with SACLAC for 24 and 48 hours. Viability was assessed by MTS assay at 24 and 48 hours and apoptosis was assessed by flow cytometry at 48 hours. Upper panels represent % viability and lower panels indicate % apoptosis.
# (§2) Two representative human-derived AML cell lines, HL60/VCR and OCI-AML2, are shown. These studies have been expanded to a large panel of additional human AML cell lines (n=30, Table 1).
# [2] = tested on: HL60/ABTR; test: Cell viability, panel of AML cell lines; format: cell-based; settings: Homo sapiens, HL-60, HL60/ABTR cells (drug resistant variant)
# Procedure: as §1, §2
# [3] = tested on: KG1a; test: Cell viability, panel of AML cell lines; format: cell-based; settings: Homo sapiens, KG-1a, KG1a cells
# Procedure: as §1, §2
# [4] = tested on: Kasumi-3; test: Cell viability, panel of AML cell lines; format: cell-based; settings: Homo sapiens, Kasumi-3 cells
# Procedure: as §1, §2
# [5] = tested on: Kasumi-6; test: Cell viability, panel of AML cell lines; format: cell-based; settings: Homo sapiens, Kasumi-6 cells
# Procedure: as §1, §2
# [6] = tested on: MM-6; test: Cell viability, panel of AML cell lines; format: cell-based; settings: Homo sapiens, MM-6 cells
# Procedure: as §1, §2
# [7] = tested on: MOLM-13; test: Cell viability, panel of AML cell lines; format: cell-based; settings: Homo sapiens, MOLM-13 cells
# Procedure: as §1, §2
# [8] = tested on: MV4-11; test: Cell viability, panel of AML cell lines; format: cell-based; settings: Homo sapiens, MV4-11 cells
# Procedure: as §1, §2
# [9] = tested on: NB4; test: Cell viability, panel of AML cell lines; format: cell-based; settings: Homo sapiens, NB-4, NB4 cells
# Procedure: as §1, §2
# [10] = tested on: NOMO1; test: Cell viability, panel of AML cell lines; format: cell-based; settings: Homo sapiens, NOMO-1, NOMO1 cells
# Procedure: as §1, §2
# [11] = tested on: OCI-AML2; test: Cell viability, panel of AML cell lines; format: cell-based; settings: Homo sapiens, OCI-AML2 cells
# Procedure: as §1, §2
# [12] = tested on: OCI-AML3; test: Cell viability, panel of AML cell lines; format: cell-based; settings: Homo sapiens, OCI-AML-3, OCI-AML3 cells
# Procedure: as §1, §2
# [13] = tested on: OCI-AML4; test: Cell viability, panel of AML cell lines; format: cell-based; settings: Homo sapiens, OCI-AML4 cells
# Procedure: as §1, §2
# [14] = tested on: SKM1; test: Cell viability, panel of AML cell lines; format: cell-based; settings: Homo sapiens, SKM-1, SKM1 cells
# Procedure: as §1, §2
# [15] = tested on: THF-1; test: Cell viability, panel of AML cell lines; format: cell-based; settings: Homo sapiens, THF-1 cells
# Procedure: as §1, §2
# [16] = tested on: U937; test: Cell viability, panel of AML cell lines; format: cell-based; settings: Homo sapiens, U-937, U937 cells
# Procedure: as §1, §2
# [17] = tested on: hAML cell lines; test: Time course studies of apoptosis and mitochondrial membrane depolarization; format: cell-based, human
# [18] = tested on: MV4-11 hAML xenograft; test: Human AML cell line mouse xenograft model; format: in vivo; settings: 5 mg/kg i.v. daily M to F for 18 days in β-HPCD, MV4-11-engrafted NSG mice, p<0.05
# [19] = molecular target: T1, acid ceramidase (AC) (Homo sapiens, UniProt Q13510); test: AC inhibition in lysates from cells overexpressing the enzyme; format: biochemical; design: expressed in transfected cells
# T1 sequence (Q13510 143-395 limits assumed): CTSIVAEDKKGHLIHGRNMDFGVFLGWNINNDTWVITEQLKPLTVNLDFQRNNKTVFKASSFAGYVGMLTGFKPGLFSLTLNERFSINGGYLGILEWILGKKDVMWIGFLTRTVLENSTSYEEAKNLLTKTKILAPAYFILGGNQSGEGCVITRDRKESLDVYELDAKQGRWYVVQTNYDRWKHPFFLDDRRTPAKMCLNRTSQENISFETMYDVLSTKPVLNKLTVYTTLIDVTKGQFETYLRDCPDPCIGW
# T1 sequence (Q13510 22-142 limits assumed): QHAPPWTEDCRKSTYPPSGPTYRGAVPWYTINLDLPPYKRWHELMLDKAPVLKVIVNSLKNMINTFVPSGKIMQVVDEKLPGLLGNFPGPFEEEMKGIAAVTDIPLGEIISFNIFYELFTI
compound,measurement,setting,value
"CCCCCCCCCCCCCCC[C@@H](O)[C@H](CO)NC(=O)CCl [SACLAC, 2-chloro-N-((2S,3R)-1,3-dihydroxyoctadecan-2-yl)acetamide]",EC50,"[1]; 24 h, read-out: EC50 24 h",1000 nM
same,EC50,"[1]; 48 h, read-out: EC50 48 h",1100 nM
same,EC50,"[2]; 24 h, read-out: EC50 24 h",2500 nM
same,EC50,"[2]; 48 h, read-out: EC50 48 h",3000 nM
same,EC50,"[3]; 24 h, read-out: EC50 24 h",5600 nM
same,EC50,"[3]; 48 h, read-out: EC50 48 h",3500 nM
same,EC50,"[4]; 24 h, read-out: EC50 24 h",500 nM
same,EC50,"[4]; 48 h, read-out: EC50 48 h",700 nM
same,EC50,"[5]; 24 h, read-out: EC50 24 h",2100 nM
same,EC50,"[5]; 48 h, read-out: EC50 48 h",2700 nM
same,EC50,"[6]; 24 h, read-out: EC50 24 h",7800 nM
same,EC50,"[6]; 48 h, read-out: EC50 48 h",6000 nM
same,EC50,"[7]; 24 h, read-out: EC50 24 h",1100 nM
same,EC50,"[7]; 48 h, read-out: EC50 48 h",1400 nM
same,EC50,"[8]; 24 h, read-out: EC50 24 h",2300 nM
same,EC50,"[8]; 48 h, read-out: EC50 48 h",1300 nM
same,EC50,"[9]; 24 h, read-out: EC50 24 h",200 nM
same,EC50,"[9]; 48 h, read-out: EC50 48 h",600 nM
same,EC50,"[10]; 24 h, read-out: EC50 24 h",1100 nM
same,EC50,"[10]; 48 h, read-out: EC50 48 h",800 nM
same,EC50,"[11]; 24 h, read-out: EC50 24 h",1800 nM
same,EC50,"[11]; 48 h, read-out: EC50 48 h",1100 nM
same,EC50,"[12]; 24 h, read-out: EC50 24 h",600 nM
same,EC50,"[12]; 48 h, read-out: EC50 48 h",400 nM
same,EC50,"[13]; 24 h, read-out: EC50 24 h",1400 nM
same,EC50,"[13]; 48 h, read-out: EC50 48 h",700 nM
same,EC50,"[14]; 24 h, read-out: EC50 24 h",1600 nM
same,EC50,"[14]; 48 h, read-out: EC50 48 h",700 nM
same,EC50,"[15]; 24 h, read-out: EC50 24 h",6700 nM
same,EC50,"[15]; 48 h, read-out: EC50 48 h",4800 nM
same,EC50,"[16]; 24 h, read-out: EC50 24 h",1000 nM
same,EC50,"[16]; 48 h, read-out: EC50 48 h",1700 nM
same,"mitochondrial membrane potential, time course",[17]; concurrent with apoptosis induction,mitochondrial membrane depolarization
same,"apoptosis, time course",[17]; time course studies,apoptosis induction
same,"leukemic burden (human CD45+ cells, YFP expression, percent double positive cells)",[18],reduced leukemic burden
same,IC50,"[19]; irreversible binding to its binding site, read-out: IC50",46.7 nM
same,IC50,"[19]; lysates from cells overexpressing the enzyme, read-out: IC50, AC inhibition",46 nM
